What was measured:
[1] = Acute toxicity measured as median lethal dose in mice; assay type: organism-based; conditions: mouse, in vivo
Mus musculus [2] = species on record: Mus musculus; assay: Hypnotic activity was measured as dose which causes loss of righting reflex for a minimum period of 30s in 50% of mice; assay type: functional
Mus musculus [3] = species on record: Mus musculus; assay: Speed of induction of analgesia in mice was determined; I = immediate, <10 s; assay type: functional, organism-based
Mus musculus [4] = species on record: Mus musculus; assay: Duration of analgesic action in mice was determined; B = brief, < 5 min; assay type: functional, organism-based
[5] = Acute toxicity measured as median lethal dose in mice; Range is 40-60; assay type: organism-based; conditions: mouse, in vivo
Mus musculus [6] = species on record: Mus musculus; assay: Hypnotic activity was measured as dose which causes loss of righting reflex for a minimum period of 30s in 50% of mice; Range is 80-100; assay type: functional
Mus musculus [7] = species on record: Mus musculus; assay: Hypnotic activity was measured as dose which causes loss of righting reflex for a minimum period of 30s in 50% of mice; Range is 5-10; assay type: functional
[8] = Acute toxicity measured as median lethal dose in mice; Range is 40-45; assay type: organism-based; conditions: mouse, in vivo
Mus musculus [9] = species on record: Mus musculus; assay: Hypnotic activity was measured as dose which causes loss of righting reflex for a minimum period of 30s in 50% of mice; Range is 1-1.5; assay type: functional
Mus musculus [10] = species on record: Mus musculus; assay: Hypnotic activity was measured as dose which causes loss of righting reflex for a minimum period of 30s in 50% of mice; Range is 40-60; assay type: functional
[11] = Acute toxicity measured as median lethal dose in mice; Range is 80-100; assay type: organism-based; conditions: mouse, in vivo
[12] = Acute toxicity measured as median lethal dose in mice; Range is 160-180; assay type: organism-based; conditions: mouse, in vivo
Mus musculus [13] = species on record: Mus musculus; assay: Speed of induction of analgesia in mice was determined; S = slow, 10-15 s; assay type: functional, organism-based
Mus musculus [14] = species on record: Mus musculus; assay: Hypnotic activity was measured as dose which causes loss of righting reflex for a minimum period of 30s in 50% of mice; Range is 10-15; assay type: functional
Mus musculus [15] = species on record: Mus musculus; assay: Speed of induction of analgesia in mice was determined; VS = very slow, > 15s; assay type: functional, organism-based
Mus musculus [16] = species on record: Mus musculus; assay: Duration of analgesic action in mice was determined; M = moderate, 5-10 min; assay type: functional, organism-based
Mus musculus [17] = species on record: Mus musculus; assay: Hypnotic activity was measured as dose which causes loss of righting reflex for a minimum period of 30s in 50% of mice; Range is 20-30; assay type: functional
Mus musculus [18] = species on record: Mus musculus; assay: Duration of analgesic action in mice was determined; L = long, >10; assay type: functional, organism-based
[19] = Acute toxicity measured as median lethal dose in mice; Range is 100-120; assay type: organism-based; conditions: mouse, in vivo
Mus musculus [20] = species on record: Mus musculus; assay: Hypnotic activity was measured as dose which causes loss of righting reflex for a minimum period of 30s in 50% of mice; Range is 30-40; assay type: functional
[21] = Acute toxicity measured as median lethal dose in mice; Range is 120-140; assay type: organism-based; conditions: mouse, in vivo
Mus musculus [22] = species on record: Mus musculus; assay: Hypnotic activity was measured as dose which causes loss of righting reflex for a minimum period of 30s in 50% of mice; Range is 60-80; assay type: functional
[23] = Acute toxicity measured as median lethal dose in mice; […]; assay type: organism-based; conditions: mouse, in vivo
Mus musculus [24] = species on record: Mus musculus; assay: Acute toxicity measured as median lethal dose in mice; Range is 80-90; assay type: organism-based; conditions: in vivo
Mus musculus [25] = species on record: Mus musculus; assay: Hypnotic activity was measured as dose which causes loss of righting reflex for a minimum period of 30s in 50% of mice; Range is 15-20; assay type: functional
[26] = Acute toxicity measured as median lethal dose in mice; Range is 140-160; assay type: organism-based; conditions: mouse, in vivo
[27] = Acute toxicity measured as median lethal dose in mice; Range is 60-80; assay type: organism-based; conditions: mouse, in vivo

In the case of `Oc1ccccc1` [PHENOL], the LD50 [1] is reported as 100 mg/kg and the HD50 (Mus musculus [2]) is reported as 70 mg/kg.
For `C=CCC1(C(C)C#CCC)C(=O)NC(=O)N(C)C1=O` (stereo unspecified), the Speed of induction (Mus musculus [3]) was “Immediate” and the Duration of action (Mus musculus [4]) was “Brief duration”.
With `CCC(C)c1ccc(O)cc1` (stereo unspecified) the LD50 [5] was 40 mg/kg.
Compound `Cc1cc(C(C)(C)C)c(O)c(C(C)(C)C)c1` [BUTYLATED HYDROXYTOLUENE] has an HD50 (Mus musculus [6]) of 80 mg/kg.
Compound `C=CCC1(C(C)C#CCC)C(=O)N=C([O-])N(C)C1=O.[Na+]` (stereo unspecified) [METHOHEXITAL SODIUM] has an HD50 (Mus musculus [7]) of 5 mg/kg and an LD50 [1] of 30 mg/kg.
In the case of `CCOC(=O)c1cncn1[C@H](C)c1ccccc1` [ETOMIDATE], the LD50 [8] is reported as 40 mg/kg, the HD50 (Mus musculus [9]) is reported as 1 mg/kg and the Speed of induction (Mus musculus [3]) is reported as “Immediate induction”. The Duration of action (Mus musculus [4]) was “Brief duration”.
`CC(C)(C)c1cccc(C(C)(C)C)c1O` gave an LD50 [1] of 120 mg/kg and an HD50 (Mus musculus [6]) of 80 mg/kg.
`CC(C)c1ccc(O)c(C(C)C)c1` showed an LD50 [1] of 120 mg/kg and an HD50 (Mus musculus [10]) of 40 mg/kg.
`Cc1cc(C(C)C)c(O)c(C(C)C)c1` gave an HD50 (Mus musculus [2]) of 20 mg/kg and an LD50 [11] of 80 mg/kg.
For `Cc1cc(C)c(C(C)C)c(O)c1C(C)C`, the LD50 [12] was 160 mg/kg and the HD50 (Mus musculus [2]) was 120 mg/kg.
For `CNC1(c2ccccc2Cl)CCCCC1=O.Cl` (stereo unspecified) [KETAMINE HYDROCHLORIDE], the LD50 [1] was 60 mg/kg, the Duration of action (Mus musculus [4]) was “Brief duration” and the Speed of induction (Mus musculus [13]) was “Slow”. The HD50 (Mus musculus [14]) was 10 mg/kg.
With `CCCCC(C)c1cccc(CCC)c1O` (stereo unspecified) the LD50 [1] was 140 mg/kg, the HD50 (Mus musculus [2]) was 50 mg/kg and the Speed of induction (Mus musculus [15]) was “Very slow”. The Duration of action (Mus musculus [16]) was “Moderate”.
With `CCCc1cccc(C(C)C)c1O` the HD50 (Mus musculus [17]) was 20 mg/kg, the LD50 [1] was 80 mg/kg and the Speed of induction (Mus musculus [3]) was “Immediate”. The Duration of action (Mus musculus [4]) was “Brief duration”.
In the case of `CC(C)c1cccc(C2CCCCC2)c1O`, the Speed of induction (Mus musculus [13]) is reported as “Slow”, the Duration of action (Mus musculus [18]) is reported as “Long” and the LD50 [19] is reported as 100 mg/kg. It also gave an HD50 (Mus musculus [20]) of 30 mg/kg.
`Cc1ccc(C(C)C)c(O)c1` [THYMOL] gave an HD50 (Mus musculus [2]) of 30 mg/kg.
For `Cc1cccc(C(C)(C)C)c1O`, the Speed of induction (Mus musculus [3]) was “Immediate induction”, the Duration of action (Mus musculus [4]) was “Brief duration” and the HD50 (Mus musculus [10]) was 40 mg/kg. The LD50 [21] was 120 mg/kg.
For `CCc1c(C)cc(C)c(CC)c1O`, the LD50 [1] was 160 mg/kg and the HD50 (Mus musculus [22]) was 60 mg/kg.
Compound `Cc1cc(C(C)(C)C)ccc1O` has an HD50 (Mus musculus [2]) of 80 mg/kg and an LD50 [23] of 180 mg/kg.
In the case of `CCc1cccc(C(C)CC)c1O` (stereo unspecified), the LD50 [1] is reported as 80 mg/kg, the Speed of induction (Mus musculus [3]) is reported as “Immediate” and the Duration of action (Mus musculus [4]) is reported as “Brief duration”. The HD50 (Mus musculus [14]) was 10 mg/kg.
Work on `CCc1ccc(O)c(C(C)C)c1` yielded an LD50 [1] of 120 mg/kg and an HD50 (Mus musculus [2]) of 40 mg/kg.
For `CCCC(C)C1(CC)C(=O)[N-]C(=S)NC1=O.[Na+]` (stereo in doubt; form 1) [THIOPENTAL SODIUM], the LD50 (Mus musculus [24]) was 80 mg/kg.
For `CCc1cccc(CC)c1O`, the HD50 (Mus musculus [25]) was 15 mg/kg, the LD50 [1] was 100 mg/kg and the Duration of action (Mus musculus [4]) was “Brief duration”. The Speed of induction (Mus musculus [13]) was “Slow induction”.
With `CCCCc1c(C)ccc(C(C)C)c1O` the LD50 [1] was 150 mg/kg and the HD50 (Mus musculus [2]) was 50 mg/kg.
In the case of `Cc1cccc(C2CCCCC2)c1O`, the Duration of action (Mus musculus [4]) is reported as “Brief duration”, the Speed of induction (Mus musculus [15]) is reported as “Very slow” and the LD50 [26] is reported as 140 mg/kg. For the same compound, the HD50 (Mus musculus [20]) was 30 mg/kg.
For `CCCCc1cccc(C(C)CC)c1O` (stereo unspecified), the HD50 (Mus musculus [17]) was 20 mg/kg, the LD50 [1] was 120 mg/kg and the Speed of induction (Mus musculus [15]) was “Very slow”. The Duration of action (Mus musculus [16]) was “Moderate”.
Work on `CCCC(C)c1ccccc1O` (stereo unspecified) yielded an HD50 (Mus musculus [17]) of 20 mg/kg and an LD50 [1] of 100 mg/kg.
In the case of `CC(C)c1cccc(C2CC2)c1O`, the HD50 (Mus musculus [17]) is reported as 20 mg/kg, the Speed of induction (Mus musculus [3]) is reported as “Immediate” and the Duration of action (Mus musculus [4]) is reported as “Brief duration”. It also gave an LD50 [21] of 120 mg/kg.
For `CCc1cccc(C(C)C)c1O`, the HD50 (Mus musculus [25]) was 15 mg/kg, the Speed of induction (Mus musculus [3]) was “Immediate” and the Duration of action (Mus musculus [4]) was “Brief duration”. The LD50 [27] was 60 mg/kg.
